IC50 data for four compounds are collected here from patent US9382244B2, “7-azaindole-2,7-naphthyridine derivative for the treatment of tumours” (Merck Patent GmbH, priority 2012, dated 2016).

Usually IC50 stands for the concentration needed to halve the response being measured.

One experiment addresses T1, Human ALK1 (Homo sapiens, UniProt P37023).
T1 construct: purchased ALK1
The experiment is described as follows: Test for the inhibition of ALK-1. Type of experiment: biochemical. The settings on record: Human ALK1, casein substrate, ATP 10 μM. On the procedure: Test for the Inhibition of ALK-1
(Serine/threonine-protein kinase receptor R3, activin receptor-like kinase 1, ALK-1, TGF-B superfamily receptor type I, TSR-I, SKR3, ACVRLK1)
Substrate: Casein, 20 mg/ml

For experiment [1], the target named is T2, TGF-beta kinase ALK5 (GST-ALK5) (Homo sapiens, UniProt P36897).
T2 sequence (P36897 34-503): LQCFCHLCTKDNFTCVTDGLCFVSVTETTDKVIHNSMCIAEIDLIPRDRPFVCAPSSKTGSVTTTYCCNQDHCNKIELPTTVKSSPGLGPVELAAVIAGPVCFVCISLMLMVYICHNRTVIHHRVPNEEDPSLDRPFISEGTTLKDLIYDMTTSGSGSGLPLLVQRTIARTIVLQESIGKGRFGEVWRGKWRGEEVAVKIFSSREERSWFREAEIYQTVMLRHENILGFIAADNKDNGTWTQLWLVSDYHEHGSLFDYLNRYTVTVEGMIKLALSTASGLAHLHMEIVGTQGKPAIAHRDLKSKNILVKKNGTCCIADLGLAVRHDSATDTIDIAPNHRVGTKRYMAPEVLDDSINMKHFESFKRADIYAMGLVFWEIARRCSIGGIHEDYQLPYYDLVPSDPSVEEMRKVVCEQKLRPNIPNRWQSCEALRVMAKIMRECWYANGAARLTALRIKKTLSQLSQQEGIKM
The experiment is described as follows: Test for the inhibition of ALK-5 (flashplate kinase assay). Type of experiment: biochemical. The settings on record: enzymatic; GST-ALK5, GST-SMAD2 substrate; read-out: IC50 [nM] [TGF-beta] enzym. ALK5. The method, then:
Test for the Inhibition of ALK-5
The experimental batches are carried out in a flashplate system with 384 wells/microtitre plate.
In each case, 31.2 nM of GST-ALK5, 439 nM of GST-SMAD2 and 3 mM of ATP (with 0.3 μCi of 33P-ATP/well) in a total volume of 35 μl of buffer (20 mM HEPES, 10 mM MgCl2, 5 mM MnCl2, 1 mM DTT, 0.1% of BSA, pH 7.4) per well are incubated without or with test substance at 5 to 10 different concentrations at 30 C for 45 min. The reaction is stopped using 25 μl of 200 mM EDTA solution and filtered off with suction after 30 min at room temperature.
The wells are washed 3 times with 100 μl of 0.9% aqueous NaCl solution, and the residual radioactivity is measured in a TopCount instrument (Perkin-Elmer). The IC50 values are calculated using the RS1 software.
The radioactivity (decompositions per minute) of the blank value (no use of test substance in the presence of 100 nM staurosporine) is subtracted from all other radioactivity values. The controls (kinase activity without test substance) are set equal to 100 percent and all other radioactivity values (after subtracting the blank value) are expressed set in relation thereto (for example in % of the control).
IC50 values (concentration of the test substance at 50% inhibition) are determined with the aid of statistics programmes, such as, for example, RS1.

In experiment [2] the test system is TGF-beta-mediated growth inhibition, lung epithelial cell line Mv1Lu. The experiment is described as follows: Cellular TGF-beta assay: elimination of TGF-beta-mediated growth inhibition. Type of experiment: cell-based. The method, then:
In-Vitro (Enzyme) Assay for Determination of the Efficacy of the Inhibitors of the Inhibition of TGF-Beta-Mediated Effects
As an example, the ability of the inhibitors to eliminate TGF-beta-mediated growth inhibition is tested.
Cells of the lung epithelial cell line Mv1Lu are sown in a defined cell density in a 96-well microtitre plate and cultivated overnight under standard conditions. Next day, the medium is replaced by medium which comprises 0.5% of FCS and 1 ng/ml of TGF-beta, and the test substances are added in defined concentrations, generally in the form of dilution series with 5-fold steps. The concentration of the solvent DMSO is constant at 0.5%. After a further two days, Crystal Violet staining of the cells is carried out. After extraction of the Crystal Violet from the fixed cells, the absorption is measured spectrophotometrically at 550 nm. It can be used as a quantitative measure of the adherent cells present and thus of the cell proliferation during the culture.

T1 sequence (P37023 22-503): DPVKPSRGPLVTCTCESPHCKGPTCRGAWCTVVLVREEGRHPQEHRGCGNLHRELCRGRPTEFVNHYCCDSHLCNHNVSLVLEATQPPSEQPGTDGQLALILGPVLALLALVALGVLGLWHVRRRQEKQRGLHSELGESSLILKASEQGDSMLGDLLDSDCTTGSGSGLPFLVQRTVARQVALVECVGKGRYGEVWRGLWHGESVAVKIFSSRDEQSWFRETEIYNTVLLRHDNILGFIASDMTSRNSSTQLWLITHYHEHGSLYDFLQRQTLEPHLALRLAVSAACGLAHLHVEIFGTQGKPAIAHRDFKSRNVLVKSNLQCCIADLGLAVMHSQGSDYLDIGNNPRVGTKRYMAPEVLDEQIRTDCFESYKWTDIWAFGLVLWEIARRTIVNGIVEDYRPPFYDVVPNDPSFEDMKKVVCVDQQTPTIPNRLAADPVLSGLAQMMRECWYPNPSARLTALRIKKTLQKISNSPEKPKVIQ

Take `Cc1[nH]c2ncccc2c1-c1cnc(N)c2cnccc12` [4-(2-methyl-1H-pyrrolo[2,3-b]pyridin-3-yl)-2,7-naphthyridin-1-ylamine]: the IC50 on Human ALK1 amounted to 79 nM; in experiment [1] it was 4.6 nM; in experiment [2], 28 nM.

Take `Nc1ncc(-c2c[nH]c3ncccc23)c2ccncc12` [Compound A24]: the IC50 in experiment [1] was determined as 13 nM; in experiment [2] it was 72 nM.

Consider `Nc1nccc2c(-c3c[nH]c4ncccc34)nccc12` [Compound A32], for which the IC50 in experiment [1] was 43 nM; in experiment [2] it was 770 nM.

Turning to `Cc1[nH]c2ncccc2c1-c1nccc2c(N)nccc12` [Compound A13], the figures for the half-inhibitory concentration (IC50) (against Human ALK1; in experiment [1]; in experiment [2]) were 200 nM, 16 nM and 160 nM, respectively.
